Experimental data as given in patent US11419833B2, “Nasally administered pharmaceutical composition for the treatment of epilepsy and related disorders” (priority 2020, dated 2022).
Entries after “also recorded” stand apart in the source; their conditions may differ.

Assays:
[1] = test system: PTZ-induced kindling; test: scPTZ-induced chemical kindling model of epileptogenesis; type: in vivo, NMRI mice
Experimental: The chemical kindling was induced according to the modified method of De Sarro i.e. by repeated treatment of mice with sub-convulsive dose of pentylenetetrazole (subcutaneous, 50 mg/kg) on alternate days. Four doses of Z-acid (150 mg/kg/day, 200 mg/kg/day, 250 mg/kg/day, and 300 mg/kg/day) were administered daily (intraperitoneal). However, on the day of PTZ administration, animals were treated with the Z-acid 30 minutes before administering PTZ. After PTZ was injected, each animal was placed separately in a clear plexiglass cage for close observations for 1 hour. The drug control groups received daily valproic acid. The Racine scoring categorization of epileptic seizures pattern was used to monitor the animals (Table 1). The animals showing score 4-5 were considered to be fully kindled. The cumulative kindling score was then calculated. Experiments were terminated once the animals were fully kindled. At the end of each experiment, animals were humanely sacrificed.

[2] = Solubility in water; type: physicochemical
[3] = test system: PTZ-induced epileptiform activity; test: PTZ-induced epileptiform activity, intraperitoneal administration (EEG protocol); type: in vivo, rats; conditions: for spike discharge: Z-acid 150 mg/kg i.p. or diazepam 5 mg/kg, 10 min after PTZ 100 mg/kg, vs PTZ-injected animals, P<0.01
Experimental: In this set of experiment, effect of Z-acid was investigated on PTZ-induced epileptiform activity. Rats (210±10 g) were divided into six groups as control, diazepam, Z-acid, PTZ, PTZ+diazepam, PTZ+Z-acid with 6 sample size in each group. PTZ was injected at the dose of 100 mg/kg. Z-acid was intraperitoneally injected in anesthetized rats at the dose of 150 mg/kg whereas drug control group was treated with 5 mg/kg dose of diazepam. Saline was used as placebo. PTZ was prepared in saline whereas Z-acid was dissolved in 0.1 N NaOH. EEG was recorded from cortical region of the rat brain.
The protocol was started by anesthetizing rat followed by fixing the animal in stereotaxic apparatus for surgery. The skin was removed to expose the bregma and lambda region of the skull. Three holes of 0.6 mm diameter were drilled with the help of a manual drill. One hole was made on the parietal lobe for the placement of active electrode whereas two were made on the occipital lobes for reference and ground electrodes. A screw with the length of 5 mm and diameter of 0.5 mm was inserted on each hole and electrodes were then connected with the EEG recording system. The recording was started by monitoring the baseline EEG recording for 5 min. After 5 min of noise-free recording, PTZ was injected to induce acute seizures. The EEG recording after the injection of PTZ was continued for 10 min to observe the induction of epileptiform activity. […] After 10 min of recording, Z-acid was injected intraperitoneally to observe its effects on PTZ-induced epileptiform activity.

[4] = test system: BDNF; test: BDNF gene expression (qRT-PCR) in PTZ-induced acute seizure; type: in vivo, rats; conditions: cortex and hippocampus, p<0.01
From the text: (§1) Rats were decapitated after recording the EEG to collect the brain samples. Cortex and hippocampus regions of brain were excised out to conduct analysis of gene expression using qRT-PCR. The tissue samples were processed for RNA isolation followed by synthesis of cDNA using Revert Aid First strand cDNA synthesis kit (Thermo Scientific). The template cDNA were then used for the amplification of BDNF and Cfos using SYBER green qPCR Master mix (Thermo Scientific). The relative gene expression was determined by comparing 2-ΔΔCt values normalized to β-actin.

[5] = test system: Cfos; test: Cfos gene expression (qRT-PCR) in PTZ-induced acute seizure; type: in vivo, rats; conditions: cortex and hippocampus, p<0.01
From the text: as §1

[6] = test system: glutamate levels; test: Glutamate levels (ELISA) in PTZ-induced acute seizure; type: in vivo, rats; conditions: cortex and hippocampus, p<0.01
From the text: Glutamate levels were also estimated in cortex and hippocampus following the administration of Z-acid formulation I. The glutamate levels were estimated using ELISA kit method (Bioassay Technology Laboratory, E1474Ra).

[7] = test system: PTZ-induced seizures; test: Acute subcutaneous PTZ-induced seizure test; type: in vivo, mice
Experimental: Anticonvulsant effects of the test compounds were evaluated using subcutaneous PTZ-induced seizure test (subcutaneous PTZ). […] The Z-acid and its analogs were administered intraperitoneally at least 30 min before subcutaneous administration of convulsive dose of PTZ (110 mg/kg). […] Latency to PTZ-induced threshold seizures was also calculated. The latency to threshold seizure is defined as the interval between the time of the PTZ-injection and the occurrence of first episode of threshold seizure. Protection of testing material against PTZ-induced mortality within 24 hours was also evaluated. […] NMRI male mice weighing between 18-22 g were selected for the study. PTZ 110 mg/Kg was administered to the PTZ group and observed the first myoclonic jerk and HLTE.

[8] = Sub-chronic toxicity profile, intraperitoneal, 3 months; type: in vivo
Experimental: To evaluate the sub-chronic toxicity profile of Z-acid the compound was administered daily into mice at the dose of 300 mg/kg (intraperitoneal) for a period of 3 months. The animals were divided into […] (8 per group) as outlined below: • Group I normal control; • Group II treated daily for 1 week; • Group III treated daily for 2 weeks; • Group IV treated daily for 1 month; • Group V treated daily for 2 months; • Group VI treated daily for 3 months
At the end of the study, animals were anaesthetized, dissected and gross examination of vital organs were performed, along with serum and whole brain samples collection. Serum and brain sample were stored in −20° C. for further examination.

[9] = Pharmacokinetics in plasma and brain after single intraperitoneal dose (GC/MS); type: in vivo; conditions: mice, 300 mg/kg intraperitoneal
Experimental: The pharmacokinetics of Z-acid in both plasma and brain after a single intraperitoneal dose of Z-acid (300 mg/kg) was studied in mice. Animals were sacrificed at 5 min, 15 min, 30 min, 60 min, 120 min, 180 min, and 240 min after the dose administration (n=4 for each time point). Blood samples were obtained in heparin containing vacutainers. The control group consists of the animals receiving no other treatment and this serve as blank plasma and aided in optimization and validation of the GC/MS method. The blood samples were later centrifuged to obtain plasma which was stored at −20° C. for further processing. Likewise, the brain samples were also collected from the sacrificed animals and stored at −20° C. for further processing on GC-MS.

[10] = Stability; type: physicochemical
[11] = intraperitoneal experiment, vs PTZ alone
[12] = 300, 400 and 500 mg/Kg intraperitoneal, 30 min before PTZ 110 mg/Kg, compared to PTZ group
[13] = 150 mg/kg intraperitoneal, 10 min after PTZ
[14] = intranasal pre-treatment (Formulation I), vs PTZ

Question: For `CCCC(CCC)C(=O)O` [valproic acid, reference compound], which “seizure pattern till the end of the kindling protocol” value ([1]; drug control, daily, compared to PTZ-kindled control group) is on record?
Answer: did not exhibit any seizure pattern

Question: Which solubility in water [2] does the source give for `CC1=CC(=CC(=O)O)CC(C)(C)C1` (single isomer, unassigned) [E/Z isomeric mixture, (E/Z)-2,2′-(3,5,5-trimethyl-2-cyclohexen-1-ylidene) acetic acid] here?
Answer: poorly soluble

Question: With `CN1C(=O)CN=C(c2ccccc2)c2cc(Cl)ccc21` [diazepam, reference compound] as the compound, how does the spike discharge [3] read?
Answer: significantly reduced

Question: And the BDNF gene expression ([4]; i.p. treatment, vs PTZ alone)?
Answer: significantly reduced

Question: What about the Cfos gene expression ([5]; i.p. treatment, vs PTZ alone) of the same compound?
Answer: significantly reduced

Question: And the glutamate levels [6, 11]?
Answer: significantly reduced

Question: For `CC1=C/C(=C\C(=O)O)CC(C)(C)C1` [Z-acid, (Z)-2-(3,5,5-trimethyl-2-cyclohexen-1-ylidene) acetic acid], which HLTE [7, 12] is on record?
Answer: prevented HLTE in all the animals

Question: What about the “onset of myoclonic seizure” value [7, 12] of the same compound?
Answer: significantly delayed

Question: What about the seizure scoring ([7]; 300, 400 and 500 mg/Kg, compared to PTZ group (FIG. 1)) of the same compound?
Answer: decreased the number seizure scoring significantly and dose dependently

Question: And the “development of kindling induced by scPTZ administration” value ([1]; 300 mg/kg daily intraperitoneal, PTZ 50 mg/kg on alternate days)?
Answer: complete inhibition

Question: And the “active dose able to inhibit the process of epileptogenesis” value ([1]; daily intraperitoneal, doses tested 150-300 mg/kg/day)?
Answer: 300 mg/kg body weight

Question: What about the “signs of toxicity, gross anatomy of organs” value ([8]; 300 mg/kg daily intraperitoneal, 3 months) of the same compound?
Answer: did not find any sign of toxicity; also recorded: no signs of toxicity

Question: What about the “LFT profile, CBC and LDH, creatinine, and urea levels” value ([8]; blood samples after 3 months daily dosing 300 mg/kg) of the same compound?
Answer: normal range

Question: What about the “persistence or sequestration in brain” value ([9]; brain) of the same compound?
Answer: No evidence

Question: And the “time to disappearance from brain” value ([9]; brain)?
Answer: ≤ 1 h

Question: And the “time to peak concentration in brain” value ([9]; brain)?
Answer: ≤ 15 min

Question: And the “apparent volume of distribution” value ([9]; plasma)?
Answer: 10 L

Question: What about the “time to disappearance from plasma” value ([9]; plasma) of the same compound?
Answer: 2 to 2.5 h

Question: And the “time to peak concentration in plasma” value ([9]; plasma)?
Answer: ≤ 5 min

Question: And the half-life ([9]; mouse, ip, plasma)?
Answer: 1 h

Question: What about the “time after administration at which PTZ-induced spikes were significantly reduced” value [3, 13] of the same compound?
Answer: 5 min

Question: What about the “time after treatment at which PTZ-induced spikes completely diminished” value [3, 13] of the same compound?
Answer: 7 to 10 min

Question: What about the spike discharge [3] of the same compound?
Answer: significantly reduced

Question: What about the BDNF gene expression ([4]; i.p. treatment, vs PTZ alone) of the same compound?
Answer: significantly reduced

Question: And the BDNF gene expression [4, 14]?
Answer: significantly reduced

Question: And the Cfos gene expression ([5]; i.p. treatment, vs PTZ alone)?
Answer: significantly reduced

Question: What about the Cfos gene expression [5, 14] of the same compound?
Answer: significantly reduced

Question: What about the glutamate levels ([6]; intranasal experiment (Formulation I), vs PTZ) of the same compound?
Answer: significantly reduced

Question: And the glutamate levels [6, 11]?
Answer: significantly reduced

Question: What about the “stability under all conditions used in various experiments” value [10] of the same compound?
Answer: stable

Question: What about the “stability in different organic solvents” value ([10]; room temperature and high temperature) of the same compound?
Answer: stable
